Measurements taken from paper PMC9699638, “Study of Membrane-Immobilized Oxidoreductases in Wastewater Treatment for Micropollutants Removal” (International Journal of Molecular Sciences, 2022).
Counter-ions that a name gives are not always drawn.

Assays:
laccase = tested on: T1, laccase; conditions: free enzyme; 50 mM acetate buffer pH 5; apparent
T1 construct: gene LCC2

[1] = tested on: T2, horseradish peroxidase (HRP); conditions: free enzyme; 50 mM phosphate buffer pH 7; co-substrate H2O2 (10 mM); apparent
T2 construct: gene PRXC1A

In the case of `CCn1c(=NN=c2sc3cc(S(=O)(=O)O)ccc3n2CC)sc2cc(S(=O)(=O)O)ccc21` [2,2′-azino-bis(3-ehylbenzothiazoline-6-sulfonic acid), diammonium salt], the Km (laccase) is reported as 87 µM and the Km [1] is reported as 1.33 mM.
